# Data as given in US20230242669A1, “ANTIBODY THAT BINDS ERBB-2 AND ERBB-3” (Merus N.V., priority 2014, published 2023).
# How the values were obtained:
# Format in all cases: cell-based, human
# JIMT-1 cells = experiment: JIMT-1 proliferation in soft agar; conditions: 10-0.003 µg/ml, 8 days
# Protocol: To this aim 96 well suspension cell culture plates were prepared. 100 µL of the soft agar bottom layer (0.6% final concentration in complete medium) was poured and left to solidify. 50 µL of the soft agar top layer (0.4% final concentration) containing 10.000 JIMT-1 cells/well were then added on top, solidified and such 96 well plates incubated overnight at 37° C., 10% CO2. […] Subsequently, the assay was incubated in cell culture incubators for 8 days. Finally, the cells were incubated with Alamar Blue for 3-5 h at 37° C. and fluorescence intensity was determined (excitation: 560 nm; emission: 590 nm). […] (FIG. 8).
# BT-474 and SKBR-3 cells = experiment: BT-474 and SKBR-3 growth in […] with HRG (morphology, PCA)
# Protocol: The cells were tested at the company Ocello based in Leiden, the Netherlands that grows cells in three dimensional […]® and uses principle component analysis to distinguish non-treated cells from treated cells. 2000 SK-BR-3 or 2250 BT474 cells were seeded in 15µl […]® per well of a 384 well plate (Greiner 781091 ). […] In addition a dose-dependent titration of HRG was included as a positive control. Each dose was tested in quadruplicate. Cells were incubated for 7 days in a cell culture incubator at 37° C., 5% CO2. Next, the cells were fixed and actin cytoskeleton of the cells was stained with phalloidin and the nuclei are stained with Hoechst. Next, fluorescent images were taken at different levels through the gel (Z-stack) and the images were superimposed. A broad range of morphological features were measured (800 in total). Only features that differed between medium and HRG treatments were selected for analysis. […] Both multiparameter and single parameter analyses were made. For single parameter measurements, t-tests were performed to compare treatments (HRG or antibody) to medium. P-values for each point were determined. […]
# The assay was performed in […]®, as described above, and morphological features were analyzed. […]
# [1] = tested on: SKBR-3 cells with FcγRIIIa reporter cells; experiment: ADCC Reporter Bioassay (Promega); conditions: SKBR-3, V158 effector cells
# Protocol: In a different ADCC setup, the ADCC Reporter Bioassay (Promega) was used. The bioassay uses engineered Jurkat cells stably expressing the FcYRIIIa receptor, V158 (high affinity) or F158 (low affinity) variant, and an NFAT response element driving expression of firefly luciferase. The assay was validated by comparing data obtained with the ADCC Reporter Bioassay to the classical ^51Cr release assay. The ADCC assays were performed using the Promega ADCC Bioassay kit using 384 white well plates. In this experimental setup SKBR-3 cells were plated at a density of 1000 cells/well in 30 µl assay medium (RPMI with 4% low IgG serum) 20-24 H before the bioassay. The next day, the culture medium was removed. […] 10 µl antibody dilutions were added to the wells. The starting concentration of the antibody was 10 µg/ml and a 10 points semi-log fold serial dilution was generated to provide a full dose-response curve. Finally, 5 µl of ADCC Bioassay effector cells (15000 cells/well, V158) were added. The cells were incubated for 6 H at 37° C. Next, 15 µl BIO-Glo luciferase substrate was added and 5 minutes later luminescence was detected in a plate reader.
# ADCC activity was measured by measuring luciferase activity. […] (FIG. 15)
substance,measurement,setting,value
"PB4188: bispecific HER2xHER3 IgG: HER2 arm MF3958, HER3 arm MF3178",Inhibition of JIMT-1 proliferation,JIMT-1 cells,dose dependent inhibition of JIMT-1 proliferation
same,"Activity compared to pertuzumab + trastuzumab, PB3448 and MEHD7945A","BT-474 and SKBR-3 cells; BT-474 and SKBR-3, in the presence of HRG",superior activity
same,Effect on HRG induced proliferation and branching/invasion phenotype,"BT-474 and SKBR-3 cells; SKBR-3, 10 ng/ml HRG",completely revert the HRG induced phenotype
same,ADCC potency compared to parental monoclonals or their combination,[1],higher ADCC potentency
